In experiment [1] the test system is HEK293 cells. In words: calcium influx in NQO1-deficient HEK293 cells. Type of experiment: cell-based, human. The method, then: Cells were grown on a coverslip in a culture medium for 24 hours, maintained in an RPMI 1640 serum-free medium for 1 hour, and pretreated with a calcium indicator Fluo-4 (5 μM) for 30 min. After pretreatment, the coverslip was mounted on a slide glass. […] Using an LSM Image Browser program (Carl Zeiss), 300 images taken for 10 min every 2 seconds were sorted and ordered in a time sequence and plotted on a graph.

A short description of experiment [2]: Respiratory Quotient and indirect calorimetry. Type of experiment: in vivo, mouse. The method, then:
O2 consumption of animals was recorded by a known method. For indirect calorimetry, mice were individually housed in calorimetry chambers (Oxymax OPTO-M3 system; Columbus Instruments, Columbus, Ohio). Animals were allowed to acclimate to a new environment for 48 hours prior to the experiment, and amounts of O2 consumption and CO2 production were measured for […] every 30 minutes. Mice were given free access to food and drinking water during the first 24 h period, and animals were given access to drinking water only during the second 24 h period. Blood samples were taken from a heparinized tube, immediately placed on ice, centrifuged and stored at −20[…] for future use. Enzymatic colorimetry was employed for quantification of triglyceride (TG), total cholesterol, free fatty acids, and glucose (Beckman Instruments, CA). Plasma insulin (Linco Research, MO), TNFα (R&D System), adiponectin (Linco Research, MO), resistin (KOMED) and leptin (Linco Research, MO) were quantified by ELISA.
This Example was intended to examine effects of pyran-1,2-naphthoquinone on fat metabolism via measurement of Respiratory Quotient (RQ). Oxygen consumption and carbon dioxide production were measured using an Oxyscan open-circuit indirect calorimeter (AccuScan Instruments, Columbus, Ohio). This apparatus consisted of enclosed acrylic chambers (21×21×21 cm). Fresh air was drawn into each chamber at a rate of 1500 mL/min and then O2 and CO2 were allowed to pass through detectors. The concentrations of the gases were recorded in mL/kg body weight/min. RQ was calculated as the volume of CO2 produced (VCO2) divided by the volume of O2 consumed (VO2). A pyrano-1,2-naphthoquinone-administered group, a vehicle-administered group and a control group were placed in each apparatus, and RQ was measured for 7 hours. For acclimation of the animals to the new environment, mice were placed in the apparatus 2 hours prior to measurement.

Experiment [3] has as its system cardiomyocytes. In words: intracellular NAD(P)H fluorescence in cardiomyocytes. Type of experiment: cell-based. How it is done:
HepG2 (human hepatoma cell line), HEK293 (Human embryonic kidney cell line), and C2C12/L6 myoblasts were purchased from American Type Culture Collection (ATCC, Manassas, Va., USA). LKB-/- MEFs were purchased from R.A. DePinho. Rat ventricular myocytes were enzymatically isolated from the heart of adult […] by a known method. Phosphorylation of AMPK ([…]) and ACC ([…]) was measured by Western blot analysis using Cell Signaling Technologies and pan- and phospho-specific antibodies (Upstate Biotechnology, Inc., Lake Placid, N.Y.). In order to monitor monochromatic fluorescence (350 nm), light was illuminated using a 75 W xenon arc lamp directed via a 10 Hz chopper wheel; specific fluorescence intensity was measured at a wavelength of 405±15 nm and 460±10 nm. Even though autofluorescence at 460 nm may occur from unknown intracellular components or cytosolic NAD(P)H, most of the light detected by the method of the present invention was generated from mitochondrial NAD(P)H. Specifically, the NQO1 activity and changes in the intracellular NAD(P)H fluorescence concentration in the presence/absence of NQO1 activity were measured in HepG2, HEK293 and pSG5 HA-NQO1 or pSG5 HA NQO1 […]-inserted HEK293 cells.

Experiment [4] has as its system AMPK. In words: AMPK phosphorylation in HEK293 cells (Western blot). Type of experiment: cell-based, human. The note with it: 10 μM, 30 min. How it is done:
Cells were lysed in SDS sample buffer (62.5 mM Tris HCl (pH 6.8), 6% (w/v) SDS, 30% glycerol, 125 mM DTT, and 0.03% (w/v) bromophenol blue). The total cell lysates were boiled at a temperature of 100° C. for 5 min and electrophoresed on a sodium dodecyl sulfate-polyacrylamide gel, and proteins were transferred on a nitrocellulose membrane. The membrane was reacted in TBS (5% (w/v) milk and 0.1% Tween 20) for 1 hour, and then reacted with primary antibodies for 2 hours. Next, the membrane was developed using HRP-conjugated secondary antibodies (Phototope-HRP Western Blot Detection Kit, New England Biolabs, Beverly, Mass.).
In order to investigate the importance of an NQO1 protein in phosphorylation of AMP kinase, HepG2, MCF-7 and HEK293 cells were seeded onto 60 mm plates at a density of 1×10^6 cells/plate. After growing the cells for 24 hours, the culture medium was replaced with a serum-free medium, and cells were treated with pyrano-1,2-naphthoquinone (10 μM) for 30 min, respectively, in combination with a control group (DMSO). Cells were lysed in RIPA buffer and amounts of all proteins were quantified using a spectrophotometer, and 50 μg of the protein was subjected to electrophoresis. AMP kinase phosphorylation was examined using Anti-AMPK and Anti-pT172-AMPK, whereas the NQO1 protein was assayed using Anti-NQO1. From the fact that AMP kinase phosphorylation by pyran-1,2-naphthoquinone (10 μM) was not observed in HEK293 cells, it can be seen that the NQO1 protein is crucial for phosphorylation of AMP kinase.
In order to examine that an activity of NQO1 is important for the phosphorylation of AMP kinase, HEK293 cells were seeded onto a 6-well plate at a density of 1×10^5 cells/well, cultured for 24 hours, and transfected with pSG5-HA-NQO1 (500 ng) and pSG5-HA-NOQ1-C609T (500 ng) plasmids. After 24 hours, the culture medium was replaced with a serum-free medium, and the cells were treated with pyrano-1,2-naphthoquinone (10 μM) and AICAR (2 mM) for 30 min, in combination with a control (DMSO). AMP kinase phosphorylation were assayed using Anti-AMPK and Anti-pT172-AMPK, whereas transfected NQO1 was assayed using Anti-HA.
In addition, AMPK phosphorylation/activation was not promoted in HEK293 cells, except for HEK293 cells transfected with wild type NQO1.

In the case of `CC1(C)CCC2=C(O1)c1ccccc1C(=O)C2=O` [βL, 2,2-Dimethyl-3,4-dihydro-2H-benzo[h]chromene-5,6-dione], in experiment [1], the calcium peak result is listed as “not appeared”. In addition, in experiment [2] (measured for 7 hours, vs vehicle-administered and control group), the “Respiratory Quotient (RQ)” value is reported as “significant difference in a RQ value”. The “oxygen consumption (indirect calorimetry)” value in experiment [2] (βL-treated mice) is “increases in night-time and day-time oxygen consumption”. Besides, the energy consumption result in experiment [2] (βL-treated mice vs control group) is recorded as “higher energy consumption”. Besides, the “decrease of NAD(P)H” value in experiment [3] was “about 40%”. Moreover, the AMP kinase phosphorylation entry in experiment [4] (HEK293 cells (no NQO1)) is listed as “not promoted”; in experiment [4] (HEK293 cells (no NQO1), listed as pyran-1,2-naphthoquinone) it was “not observed”; in experiment [4] (HEK293 transfected with NQO1-C609T having no NQO1 activity), “no phosphorylation of AMP kinase”.

For the origin of these results see patent US20140106387A1, “METHOD FOR CONTROLLING NAD(P)/NAD(P)H RATIO BY OXIDOREDUCTASE” (MD BIOALPHA CO., LTD., priority 2006, published 2014).
